What was measured:
MDA-MB-231R cells = assay: Confocal uptake of NBD-Def1; format: cell-based; conditions: confocal microscopy, 20, 6.6 or 2.2 ug/ml, 15 min, 37C, N=4
SKOV3 cells = assay: Confocal uptake of NBD-Def1; format: cell-based; conditions: confocal microscopy, 20, 6.6 or 2.2 ug/ml, 15 min, 37C, N=4
[1] = tested on: MCF-10A normal epithelial breast cells; assay: Confocal uptake of NBD-Def1; format: cell-based; conditions: confocal microscopy, 5 times higher dose (200 mg/mL)
fibroblasts cells = assay: Confocal uptake of NBD-Def1; format: cell-based; conditions: confocal microscopy, 5 times higher dose (200 mg/mL)
[2] = tested on: induced pluripotent stem cell derived cardiomyocytes (iPSC); assay: MTT viability assay, IC-50; format: cell-based, human
[3] = tested on: Bone Marrow Cells MSC-001F; assay: Viability assay, IC-50; format: cell-based; conditions: normal cells
MCF-10A Epithelial Cells = assay: MTT viability assay, IC-50; format: cell-based; conditions: normal epithelial breast cells, 24 h
[4] = 15N NMR chemical shift mapping of Def1 binding to GlcCer; conditions: 15N-labeled Def1, chemical shift perturbation, T1, 15N-1H NOE; N=3
MCF-7R cells = assay: Ceramide release by LC-MS/MS; format: cell-based; conditions: 20 μM, 6 hrs, Doxorubicin resistant MCF-7R cells, n=4, preliminary
thioredoxin (Trx) = target: T1, thioredoxin (Trx) (Homo sapiens, UniProt P10599); assay: Thioredoxin redox Western blot; format: cell-based; conditions: 20 μM Def1, Doxorubicin resistant MDA-MB-231-R cells, N=4
T1 sequence (P10599 1-105): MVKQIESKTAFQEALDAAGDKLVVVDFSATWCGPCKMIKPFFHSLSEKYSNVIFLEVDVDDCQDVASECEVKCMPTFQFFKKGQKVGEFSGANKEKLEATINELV

ASK1 = assay: Immunoblot of ASK1 Thr845 phosphorylation; format: cell-based; conditions: 50 μM, 60 minutes, MDA-MB-231 cells, vs solvent control and NAC control, N=4
MDA-MB-231 = conditions: read-out: IC-50, MDA-MB-231; unit printed only in neighbouring columns; ref 39b; cited from earlier work
MCF-7 = conditions: read-out: IC-50, MCF-7; unit printed only in neighbouring columns; ref 39b; cited from earlier work
BT-549 = conditions: read-out: IC-50, BT-549; unit printed only in neighbouring columns; ref 39b; cited from earlier work

## 6-((N-(7-nitrobenz-2-oxa-1, 3-diazol-4-yl) amino) hexanoyl (NBD)-Def1 [NBD-Def1]
MDA-MB-231R cells
  uptake, MDA-MB-231R: concentration dependent uptake
SKOV3 cells
  uptake, SKOV3: concentration dependent uptake
[1]
  uptake, normal epithelial breast cells MCF-10A: did not pick up
Fibroblasts cells
  uptake, fibroblasts: did not pick up

## COc1cccc2c1C(=O)c1c(O)c3c(c(O)c1C2=O)C[C@@](O)(C(=O)CO)C[C@@H]3O[C@H]1C[C@H](N)[C@H](O)[C@H](C)O1 [Doxorubicin, reference compound]
[2]; in contrast to Def1
  more potency for cardiomyocytes and bone marrow cells: 10-15 times

## Medicago sativa Defensin 1 [Def1]
[3]
  IC-50, Bone Marrow Cells MSC-001F: > 150 µM
MCF-10A Epithelial Cells
  IC-50, MCF-10A Epithelial Cells: > 200 µM
[2]; human iPSC cardiomyocytes, MTT, 24 h
  IC-50, iPSC (induced pluripotent stem cell derived cardiomyocytes): > 180 µM
[4]
  binding to GlcCer: binds to GlcCer at two regions
MCF-7R cells
  accumulation of ceramide: enhanced accumulation of ceramide
Thioredoxin (Trx)
  oxidation of Trx (new band at 28 KDa): oxidation of Trx
ASK1
  phosphorylation of Thr845 residue of ASK1: significant increase

## hBD-1: Human Beta Defensin (hBD-1) with three S-S bonds (DHYNCVSSGGQCLYSACPIFTKIQGTCYRGKAKCCK; Beta-defensin 1; UniProt P60022 33-68, looked up)
MDA-MB-231
  IC50: 18 µM
MCF-7
  IC50: 21 µM
BT-549
  IC50: 17 µM
